Results on 25 molecules are retold here after patent publication US7365069B2, “Pyrimidone derivatives” (Bexel Pharmaceuticals Inc., priority 2002, dated 2008).

Each structure is given as a SMILES string.

The target in one data set is T1, COX-2 (Homo sapiens, UniProt P35354).
T1 construct: incubation of human blood with lipopolysaccharide (LPS), which induces COX-2 production in the blood; endogenous in cells; host or cells: fresh human whole blood from volunteers, treated with aspirin and then LPS
T1 sequence (P35354 18-604): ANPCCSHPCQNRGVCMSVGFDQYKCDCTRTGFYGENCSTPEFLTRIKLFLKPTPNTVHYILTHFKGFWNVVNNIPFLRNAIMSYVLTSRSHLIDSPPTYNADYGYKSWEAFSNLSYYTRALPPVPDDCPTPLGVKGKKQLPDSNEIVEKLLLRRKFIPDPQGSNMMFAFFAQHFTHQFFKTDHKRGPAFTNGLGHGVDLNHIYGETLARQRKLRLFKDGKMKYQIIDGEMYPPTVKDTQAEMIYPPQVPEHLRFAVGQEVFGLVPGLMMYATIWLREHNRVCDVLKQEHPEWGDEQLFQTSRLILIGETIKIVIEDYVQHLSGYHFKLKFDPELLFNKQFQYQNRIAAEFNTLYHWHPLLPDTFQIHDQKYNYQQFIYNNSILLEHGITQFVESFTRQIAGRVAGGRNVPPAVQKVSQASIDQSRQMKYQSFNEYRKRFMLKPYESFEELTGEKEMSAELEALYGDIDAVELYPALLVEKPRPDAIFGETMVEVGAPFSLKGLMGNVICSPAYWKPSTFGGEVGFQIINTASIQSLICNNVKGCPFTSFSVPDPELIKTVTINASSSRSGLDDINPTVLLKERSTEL
Kind of data set: Human whole blood assay, COX-2 inhibition (PGE2 ELISA after LPS). It counts as cell-based. The note with it: 0.25 μM, LPS 24 h. On the procedure:
In Vivo Evaluation of Cyclooxygenase-2 (COX-2) Inhibition Activity
The COX-2 inhibition activities of the compounds illustrated in the examples are determined by the following method.
Human whole blood provides a protein and cell rich milieu appropriate for the study of biochemical efficacy of anti-inflammatory compounds such as selective COX-2 inhibitors. […] This is correlating with the observation that COX-2 inhibitors have no effect on prostaglandin E2 (PGE2) production in normal blood. These inhibitors are active only after incubation of human blood with lipopolysaccharide (LPS), which induces COX-2 production in the blood.
Fresh blood is collected in tubes containing potassium EDTA by vein puncture from make volunteers. The subjects should have no apparent inflammatory conditions and not taken NSAIDs for at least 7 days prior to blood collection. Blood is treated with aspirin in vitro (10 μg/ml, at time zero) to inactivate COX-1, and then with LPS (10 μg/ml) along with test agents or vehicle. The blood is incubated for 24 h at 37° C., after which the tubes are centrifuged, the plasma is separated and stored at −80° C. (J. Pharmacol. Exp. Ther, 271, 1705, 1994; Proc. Natl. Acad. Sci. USA., 96, 7563, 1999). The plasma is assayed for PGE2 using Cayman ELISA kit as per the procedure outlined by the manufacturer (Cayman Chemicals, Ann Arbor, USA).
(In general: ELISA stands for enzyme-linked immunosorbent assay.)

Another data set deals with TNF-α. The data set is described as follows: TNF-α production in LPS-stimulated human whole blood. As to conditions: LPS 4 h. Format: cell-based. On the procedure: Tumor Necrosis Factor Alpha (TNF-α)
This assay determines the effect of test compounds on the production of TNF-α in human whole blood. TNF-α assay is carried out as described by Armin hatzelmann and Christian Schudt (J Pharm Exp Ther 297, 261, 2001). Compounds are tested for their ability to inhibit the activity of TNF-α in human whole blood. The test compounds are pre-incubated for 15 minutes at 37° C. and then stimulated with Lipopolysaccharide (Salmonella abortus equi, 1 μg/ml) for 4 h at 37° C. in 5% CO2. The levels of TNF-α are estimated using Enzyme linked Immunosorbent assay performed in a 96 well format as per the procedure of the manufacturer (Cayman Chemical, Ann Arbor, USA).

The term melting point denotes the temperature, or range, at which the solid turns liquid. By inhibition is commonly meant the percentage by which the read-out fell short of the control. The low end stands for a response near the control, the high end for a response far below the control.

With `CCc1ccc(-n2c(-c3ccc(SC)cc3)nc(SC)c(C#N)c2=O)cc1` [Example 14, 5-cyano-1-(4-ethylphenyl)-4-(methylthio)-2-[4-(methylthio)phenyl]-6-oxo-1,6-dihydropyrimidine], the melting point fell in the range of 223 to 225 °C. In addition, on COX-2, 0.25 µM produced 28.2% inhibition. Regarding `CSc1nc(-c2ccccn2)n(-c2ccc(C)cc2)c(=O)c1C#N` [Example 34, 5-cyano-4-(methylthio)-1-(4-methylphenyl)-6-oxo-2-pyridin-2-yl-1,6-dihydropyrimidine], the melting point was 247 to 248 °C. On to `Cc1ccc(-n2c(-c3ccc(S(C)(=O)=O)cc3)nc(N3CCNCC3)c(C(N)=O)c2=O)cc1` [Example 45, 5-carboxamido-1-(4-methylphenyl)-2-[4-(methylsulfonyl)phenyl]-6-oxo-4-piperazin-1-yl-1,6-dihydropyrimidine], for which the melting point was 269 to 275 °C. Still for that read-out and setting: the result for `CS(=O)(=O)c1ccc(-n2c(-c3ccc(F)cc3)nc(S(C)(=O)=O)c(C(N)=O)c2=O)cc1` [Example 48, 5-carboxamido-2-(4-fluorophenyl)-4-(methylsulfonyl)-1-[4-(methylsulfonyl)phenyl]-6-oxo-1,6-dihydropyrimidine] reads 237 to 241 °C. Same read-out and setting: to `CCc1ccc(-n2c(-c3ccccn3)nc(SC)c(C#N)c2=O)cc1` [Example 33, 5-cyano-4-(methylthio)-1-(4-ethylphenyl)-6-oxo-2-pyridin-2-yl-1,6-dihydropyrimidine] belongs 172 to 175 °C. The molecule `CSc1ccc(-c2nc(SC)c(C#N)c(=O)n2-c2ccc(Br)cc2)cc1` [Example 15, 1-(4-bromophenyl)-5-cyano-4-(methylthio)-2-[4-(methylthio)phenyl]-6-oxo-1,6-dihydropyrimidine] returned a melting point of 213 to 215 °C. In addition, the inhibition at 0.1 µM in the data set on TNF-α came out at 18.4%. As to `Cc1ccc(-n2c(-c3ccc(S(C)(=O)=O)cc3)nc(N3CCOCC3)c(C(N)=O)c2=O)cc1` [Example 47, 5-carboxamido-1-(4-methylphenyl)-2-[4-(methylsulfonyl)phenyl]-4-morpholin-4-yl-6-oxo-1,6-dihydropyrimidine], the melting point was in the range of 226 to 228 °C.

With `CNc1nc(-c2ccc(S(C)(=O)=O)cc2)n(-c2ccc(C)cc2)c(=O)c1C(N)=O` [Example 46, 5-carboxamido-4-(methylamino)-1-(4-methylphenyl)-2-[4-(methylsulfonyl)phenyl]-6-oxo-1,6-dihydropyrimidine], the melting point was above 300 °C.

`COc1cc(-n2c(-c3ccc(SC)cc3)nc(SC)c(C#N)c2=O)cc(OC)c1OC` [Example 13, 5-cyano-1-(3,4,5-trimethoxyphenyl)-4-(methylthio)-2-[4-(methylthio)phenyl]-6-oxo-1,6-dihydropyrimidine] gave a melting point of 192 to 195 °C. For the same molecule, the inhibition at 0.25 µM at COX-2 stood at 33.5%.

With `CCOc1ccc(-n2c(-c3ccncc3)nc(SC)c(C#N)c2=O)cc1` [Example 35, 5-cyano-4-(methylthio)-1-(4-ethoxyphenyl)-6-oxo-2-pyridin-4-yl-1,6-dihydropyrimidine], the melting point is 201 to 204 °C. Still for that read-out and setting: to `CSc1nc(-c2ccccc2)n(-c2ccc(C)cc2)c(=O)c1C#N` [Example 23, 5-cyano-1-(4-methylphenyl)-4-(methylthio)-6-oxo-2-phenyl-1,6-dihydropyrimidine] belongs 258 to 260 °C; to `CSc1ccc(-c2nc(SC)c(C#N)c(=O)n2-c2ccc(C)cc2C)cc1` [Example 19, 5-cyano-1-(2,4-dimethylphenyl)-4-(methylthio)-2-[4-(methylthio)phenyl]-6-oxo-1,6-dihydropyrimidine], 203 to 205 °C.

For `CCc1ccc(-n2c(-c3cccnc3)nc(SC)c(C#N)c2=O)cc1` [Example 38, 5-cyano-4-(methylthio)-1-(4-ethylphenyl)-6-oxo-2-pyridin-3-yl-1,6-dihydropyrimidine], the melting point is 207 to 209 °C. The same measure, in the same setting: to `CCCCc1ccc(-n2c(-c3ccc(SC)cc3)nc(SC)c(C#N)c2=O)cc1` [Example 24, 1-(4-n-butylphenyl)-5-cyano-4-(methylthio)-2-[4-(methylthio)phenyl]-6-oxo-1,6-dihydropyrimidine] belongs 138 to 141 °C; to `Cc1ccc(-n2c(-c3ccc(S(C)(=O)=O)cc3)nc(O)c(C#N)c2=O)cc1C` [Example 53, 5-cyano-1-(3,4-dimethylphenyl)-4-hydroxy-2-[4-(methylsulfonyl)phenyl]-6-oxo-1,6-dihydropyrimidine], above 285 °C. `COc1ccc(-n2c(-c3ccccn3)nc(SC)c(C#N)c2=O)cc1` [Example 31, 5-cyano-4-(methylthio)-1-(4-methoxyphenyl)-6-oxo-2-pyridin-2-yl-1,6-dihydropyrimidine] showed a melting point of 246 to 253 °C. The molecule also showed an inhibition at 0.1 µM in the data set on TNF-α of 20.2%. `CS(=O)(=O)c1ccc(-n2c(-c3ccc(F)cc3)nc(O)c(C#N)c2=O)cc1` [Example 52, 5-cyano-2-(4-fluorophenyl)-4-hydroxy-1-[4-(methylsulfonyl)phenyl]-6-oxo-1,6-dihydropyrimidine]: the melting point was above 285 °C.

Consider `CSc1nc(-c2ccncc2)n(-c2ccc(C)cc2)c(=O)c1C#N` [Example 36, 5-cyano-4-(methylthio)-1-(4-methylphenyl)-6-oxo-2-pyridin-4-yl-1,6-dihydropyrimidine], for which the melting point is above 250 °C.

The molecule `Cc1ccc(-n2c(-c3ccc(S(C)(=O)=O)cc3)nc(S(C)(=O)=O)c(C(N)=O)c2=O)cc1C` [Example 51, 5-carboxamido-1-(3,4-dimethylphenyl)-4-(methylsulfonyl)-2-[4-(methylsulfonyl)phenyl]-6-oxo-1,6-dihydropyrimidine] gave a melting point of 245 to 248 °C. In turn, `CSc1nc(-c2cccnc2)n(-c2ccc(C)c(C)c2)c(=O)c1C#N` [Example 39, 5-cyano-4-(methylthio)-1-(3,4-dimethylphenyl)-6-oxo-2-pyridin-3-yl-1,6-dihydropyrimidine] showed a melting point above 250 °C. On to `CSc1nc(-c2ccncc2)n(-c2ccc(F)cc2)c(=O)c1C#N` [Example 25, 5-cyano-1-(4-fluorophenyl)-4-(methylthio)-6-oxo-2-pyridin-4-yl-1,6-dihydropyrimidine], for which the melting point lay in the range of 301 to 303 °C. The same molecule came in with an inhibition at 1 µM in the data set on TNF-α (1 μM) of 59.6%.

Molecule `CSc1nc(-c2ccccn2)n(-c2ccc(C)c(C)c2)c(=O)c1C#N` [Example 32, 5-cyano-4-(methylthio)-1-(3,4-dimethylphenyl)-6-oxo-2-pyridin-2-yl-1,6-dihydropyrimidine] registered a melting point of 218 to 223 °C. At 0.1 µM the inhibition with TNF-α was 17.9%.

Consider `Cc1ccc(-n2c(-c3ccc(S(C)(=O)=O)cc3)nc(S(C)(=O)=O)c(C(N)=O)c2=O)cc1` [Example 44, 5-carboxamido-1-(4-methylphenyl)-4-(methylsulfonyl)-2-[4-(methylsulfonyl)phenyl]-6-oxo-1,6-dihydropyrimidine], for which the melting point lay in the range of 260 to 262 °C.

In turn, `CSc1nc(-c2ccncc2)n(-c2ccc(C(C)C)cc2)c(=O)c1C#N` [Example 37, 5-cyano-4-(methylthio)-1-(4-isopropylphenyl)-6-oxo-2-pyridin-4-yl-1,6-dihydropyrimidine] registered a melting point of 173 to 175 °C. Still for that read-out and setting: the result for `COc1ccc(-n2c(-c3cccnc3)nc(SC)c(C#N)c2=O)cc1` [Example 40, 5-cyano-4-(methylthio)-1-(4-methoxyphenyl)-6-oxo-2-pyridin-3-yl-1,6-dihydropyrimidine] reads 230 to 233 °C.
